{"source": "paper PMC5349529", "about": "“Antagonizing effects of membrane-acting androgens on the eicosanoid receptor OXER1 in prostate cancer” (Scientific Reports, 2017)", "target": "oxoeicosanoid receptor 1 (OXER1) (Homo sapiens, UniProt Q8TDS5)", "sequence (Q8TDS5 whole entry)": "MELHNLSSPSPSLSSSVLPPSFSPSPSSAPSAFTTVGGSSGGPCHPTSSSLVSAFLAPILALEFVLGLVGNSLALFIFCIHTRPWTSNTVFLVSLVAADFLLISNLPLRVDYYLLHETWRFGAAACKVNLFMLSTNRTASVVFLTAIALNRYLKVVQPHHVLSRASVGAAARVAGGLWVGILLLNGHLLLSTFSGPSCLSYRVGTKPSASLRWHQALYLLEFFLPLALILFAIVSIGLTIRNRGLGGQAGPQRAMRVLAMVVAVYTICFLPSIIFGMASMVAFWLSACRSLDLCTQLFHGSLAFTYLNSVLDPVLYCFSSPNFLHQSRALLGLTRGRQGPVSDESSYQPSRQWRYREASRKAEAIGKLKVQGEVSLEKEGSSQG", "experiment": "inhibition of forskolin-stimulated cAMP in CHO-K1 cells stably expressing human OXER1 (agonist); also displaces [3H]testosterone from DU-145 membranes", "format": "cell-based", "data": [{"smiles": "CCCCC/C=C\\C/C=C\\C/C=C\\C=C\\C(=O)CCCC(=O)O", "note": "[5-oxoETE, 5-oxo-6E,8Z,11Z,14Z-eicosatetraenoic acid]", "values": [{"measurement": "IC50", "value": "~2", "unit": "nM"}]}]}
